In general, EC50 refers to the concentration needed to bring the measured effect to its halfway point.

The subject of data set [1] is neutrophils in whole human blood. Nature of the data set: rhGROα-induced neutrophil shape change in whole human blood. In kind it is cell-based.
For data set [2], the target named is human CXCR2 receptor (Homo sapiens, UniProt P25025). The following applies: membranes from CHO cells expressing human CXCR2 receptor.
Data set [3] can be described thus: Clinical study of PDR001 in combination with a CXCR2 inhibitor (DLT evaluation). In kind it is in vivo, human. The settings on record: PDR001 400 mg Q4W + CXCR2 inhibitor 75 mg BID 2 weeks on/2 week off; seven patients dosed, two completed 56-day DLT period. As for the experimental part:
The primary objective of this study is to combine the PDR001 checkpoint inhibitor with the CXCR2 inhibitor, 6-chloro-3-((3,4-dioxo-2-(pentan-3-ylamino)cyclobut-1-en-1-yl)amino)-2-hydroxy-N-methoxy-N-methylbenzenesulfonamide choline salt, to identify the doses and schedule for combination therapy and to preliminarily assess the safety, tolerability, pharmacological and clinical activity of these combinations.
Patients are dosed on a flat scale and not by body weight or body surface area. Dosing of the CXCR2 inhibitor occurs immediately after completion of the PDR001 infusion during clinic visits. Patients are treated with 400 mg PDR001 every four weeks (i.e., Q4W). The CXCR2 inhibitor is administered orally twice daily, approximately 12 hours apart, with approximately 240 mL of water on an empty stomach at least 1 hour before or 2 hours after a meal, at about the same time every day. Patients are instructed not to chew the medication but to swallow it whole. The CXCR2 inhibitor is administered at a starting dose of 75 mg BID, two weeks on/two weeks off in each 28-day cycle or one week on/two weeks off in each 21-day cycle. If tolerated, the dose may be escalated to 150 mg BID two weeks on/two weeks off or one week on/two weeks off. […] Multiple dose levels below the MTD may be evaluated simultaneously in order to obtain PK and PD data across a range of doses and to establish the MTD/RDE. […]

Data set [4] relates to neutrophils. Nature of the data set: rhGROα-induced neutrophil migration. In kind it is cell-based.
Data set [5] has as its system PBMCs from whole blood activated by SEB. In kind it is cell-based, human.
In data set [6] the test system is MC38 tumors. Nature of the data set: PD-L1 expression on tumor-infiltrating dendritic cells and macrophages in MC38 colon carcinoma mouse model. In kind it is in vivo, C57BL/6 mice. The settings on record: combination BLZ945 200 mg/kg p.o. weekly + 5D12 10 mg/kg i.p. biweekly, day 9. How it is done:
C57BL/6 mice (Charles River Laboratories) were implanted with 1×10^6 MC38 cells subcutaneously. When tumors were 70-100 mm3 in size, mice were randomized into groups of 8 animals and treated with an anti-TIM-3 antibody (5D12), a CSF-1R binding agent (BLZ945), both 5D12 antibody and BLZ945, or with vehicle control. Mice were dosed orally (p.o.) or intraperitoneally (i.p.). The groups of mice were dosed as follows:
Group 1) Vehicle p.o+antibody Isotype (mIgG1) i.p; Group 2) BLZ945 200 mg/kg p.o+antibody isotype (mIgG1) i.p; Group 3) Vehicle p.o+5D12 (mouse anti-TIM-3) 10 mg/kg i.p; Group 4) BLZ945 200 mg/kg p.o+5D12 (mouse anti-TIM-3) 10 mg/kg i.p. BLZ945 was dosed weekly and 5D12 was dosed biweekly.
At Day 9 post-treatment initiation, mice were sacrificed. Tumors were harvested and processed into single cell suspensions for analysis by flow cytometry. The single cell suspension was generated using a combination of dispase, collagenase and DNase 1. The tumor infiltrating immune cells were analyzed by flow cytometry. Samples were acquired on a BD Fortessa and data was analyzed using Flowjo. Populations were defined as follows: dendritic cells (CD45+CD11b+Ly6C-MHC-II+Ly6G-F480−) and macrophages (CD45+CD11b+Ly6C-MHC-II+Ly6G-F480+). Levels of PD-L1 expression were analyzed as the mean fluorescence intensity of signal in the PD-L1 channel. […]

Structures can show the parent of a compound that is named as a salt.

human CXCR2 receptor, sequence (P25025 whole entry): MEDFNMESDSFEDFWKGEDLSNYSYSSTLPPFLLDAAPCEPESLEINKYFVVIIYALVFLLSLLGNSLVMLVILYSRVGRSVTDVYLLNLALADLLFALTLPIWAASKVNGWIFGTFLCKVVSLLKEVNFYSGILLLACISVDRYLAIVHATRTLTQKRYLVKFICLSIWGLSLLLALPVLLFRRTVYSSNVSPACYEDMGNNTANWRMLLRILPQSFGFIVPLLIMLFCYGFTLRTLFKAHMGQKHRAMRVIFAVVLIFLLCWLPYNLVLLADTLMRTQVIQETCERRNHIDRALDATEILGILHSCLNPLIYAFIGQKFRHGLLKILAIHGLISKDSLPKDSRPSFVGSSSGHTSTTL

As for `CCC(CC)Nc1c(Nc2ccc(Cl)c(S(=O)(=O)N(C)OC)c2O)c(=O)c1=O` [6-chloro-3-((3,4-dioxo-2-(pentan-3-ylamino)cyclobut-1-en-1-yl)amino)-2-hydroxy-N-methoxy-N-methylbenzenesulfonamide choline salt], the “neutrophil shape change induced by rhGROα” value in data set [1] is given as “dose-dependent inhibition”. Also, the “GROα and IL-8-stimulated [35S]GTPγS binding” value in data set [2] is “inhibits”. In addition, the “dose limiting toxicity (DLT)” value in data set [3] is listed as “no patient has developed a DLT”. Further, the rhGROα-induced neutrophil migration result in data set [4] is “dose-dependent inhibition”.
For “PDR001: anti-PD-1 antibody molecule (PD-1 inhibitor, Novartis), also known as Spartalizumab”, the “dose limiting toxicity (DLT)” value in data set [3] is reported as “no patient has developed a DLT”. The “EC50 in SEB activation assay” value in data set [5] is 0.5 mg/L. In addition, the EC50 in data set [5] (read-out: EC50 in SEB activation assay) amounted to 3.68 nM.
In the case of `CNC(=O)c1cc(Oc2ccc3nc(N[C@@H]4CCCC[C@H]4O)sc3c2)ccn1` [BLZ945, 4-((2-(((1R,2R)-2-hydroxycyclohexyl)amino)benzo[d]thiazol-6-yl)oxy)-N-methylpicolinamide], the “PD-L1 expression (mean fluorescence intensity) in F480+ and F480- tumor-infiltrating cells” value in data set [6] was “enhancement”.

B1: LAG525: LAG-3 inhibitor (Novartis), anti-LAG-3 antibody molecule (antibody, chains of the INN, looked up, V domains shown)
VH: QVQLVQSGAEVKKPGASVKVSCKASGFTLTNYGMNWVRQARGQRLEWIGWINTDTGEPTYADDFKGRFVFSLDTSVSTAYLQISSLKAEDTAVYYCARNPPYYYGTNNAEAMDYWGQGTTVTVSS
VL: DIQMTQSPSSLSASVGDRVTITCSSSQDISNYLNWYLQKPGQSPQLLIYYTSTLHLGVPSRFSGSGSGTEFTLTISSLQPDDFATYYCQQYYNLPWTFGQGTKVEIK
On to B1, for which, in data set [5] (increasing doses of LAG525 with fixed 0.5 ug/ml each of PDR001 and GWN323), the “IL-2 production in the SEB assay on titration” value is “dose-responsive production of IL-2”.

(Values after patent US20200277378A1, “COMBINATION THERAPIES” (Novartis AG, priority 2017, published 2020).)
